Several values for one entry are separate records, joined by “and”; a condition that tells them apart may be missing. Identical values can stand only once. Like-named read-outs stand apart in the source and are kept apart here.
What was measured:
[1] = system: phosphorylation of p70S6K; assay: Inhibition of p70S6K phosphorylation, α-screen assay in SH-SY5Y cell; assay type: cell-based; conditions: mean ± SD (n ≥ 3)
BV2 cells = assay: Cell viability assay, BV2 cells; assay type: cell-based; conditions: 24 h; for Cytotoxicity on BV2 cells: 2, 5, 10, 20, 40 μmol/L; for Cell viability of BV2 cells at high concentration: 80, 160 μmol/L
SH-SY5Y cells = assay: Cell viability assay; assay type: cell-based; conditions: 24 h
[2] = from PAMPA–BBB Pe
in vitro = conditions: PAMPA
[3] = system: phosphorylation of AKT, mTOR, p70S6K and ULK1; assay: Western blot of AKT/mTOR/ULK1 signaling pathway in BV2 cells; assay type: cell-based; conditions: 20, 10, 5 μmol/L, 24 h
LC3 II, Beclin 1 and p62 = assay: Western blot of autophagy marker proteins in BV2 cells; assay type: cell-based; conditions: 24 h
autophagy in BV2 cells = assay: Autophagic flux assay; assay type: cell-based; conditions: 20 μmol/L, 24 h, compared with the control group
Aβ1−40 and Aβ1−42 = assay: Aβ clearance ELISA assay in BV2 cell; assay type: cell-based; conditions: 5, 10 and 20 μmol/L, 24 h, then 2 μg/mL soluble Aβ for 3 h
[4] = system: phosphorylation of tau protein; assay: Tau phosphorylation Western blot in SH-SY5Y cell; assay type: cell-based; conditions: 5, 10 and 20 μmol/L, 24 h
[5] = system: APP/PS1 transgenic AD model mice; assay: Morris Water Maze assay in APP/PS1 transgenic mice; assay type: in vivo; conditions: 100 days, compared with TV group
[6] = system: APP/PS1 transgenic AD model mice; assay: Nesting test in APP/PS1 transgenic mice; assay type: in vivo; conditions: 30 mg/kg orally, 100 days, compared with TV group
Aβ40/42 = Aβ40/42 level in brain of APP/PS1 transgenic mice, ELISA; assay type: in vivo; conditions: oral, 100 days, compared with TV group
[7] = system: p70S6K and tau phosphorylation; assay type: in vivo; conditions: APP/PS1 transgenic mice
hERG potassium channels = hERG potassium channels (Homo sapiens, UniProt Q12809); assay: hERG inhibition patch clamp assay
Chain of hERG potassium channels (Q12809 whole entry): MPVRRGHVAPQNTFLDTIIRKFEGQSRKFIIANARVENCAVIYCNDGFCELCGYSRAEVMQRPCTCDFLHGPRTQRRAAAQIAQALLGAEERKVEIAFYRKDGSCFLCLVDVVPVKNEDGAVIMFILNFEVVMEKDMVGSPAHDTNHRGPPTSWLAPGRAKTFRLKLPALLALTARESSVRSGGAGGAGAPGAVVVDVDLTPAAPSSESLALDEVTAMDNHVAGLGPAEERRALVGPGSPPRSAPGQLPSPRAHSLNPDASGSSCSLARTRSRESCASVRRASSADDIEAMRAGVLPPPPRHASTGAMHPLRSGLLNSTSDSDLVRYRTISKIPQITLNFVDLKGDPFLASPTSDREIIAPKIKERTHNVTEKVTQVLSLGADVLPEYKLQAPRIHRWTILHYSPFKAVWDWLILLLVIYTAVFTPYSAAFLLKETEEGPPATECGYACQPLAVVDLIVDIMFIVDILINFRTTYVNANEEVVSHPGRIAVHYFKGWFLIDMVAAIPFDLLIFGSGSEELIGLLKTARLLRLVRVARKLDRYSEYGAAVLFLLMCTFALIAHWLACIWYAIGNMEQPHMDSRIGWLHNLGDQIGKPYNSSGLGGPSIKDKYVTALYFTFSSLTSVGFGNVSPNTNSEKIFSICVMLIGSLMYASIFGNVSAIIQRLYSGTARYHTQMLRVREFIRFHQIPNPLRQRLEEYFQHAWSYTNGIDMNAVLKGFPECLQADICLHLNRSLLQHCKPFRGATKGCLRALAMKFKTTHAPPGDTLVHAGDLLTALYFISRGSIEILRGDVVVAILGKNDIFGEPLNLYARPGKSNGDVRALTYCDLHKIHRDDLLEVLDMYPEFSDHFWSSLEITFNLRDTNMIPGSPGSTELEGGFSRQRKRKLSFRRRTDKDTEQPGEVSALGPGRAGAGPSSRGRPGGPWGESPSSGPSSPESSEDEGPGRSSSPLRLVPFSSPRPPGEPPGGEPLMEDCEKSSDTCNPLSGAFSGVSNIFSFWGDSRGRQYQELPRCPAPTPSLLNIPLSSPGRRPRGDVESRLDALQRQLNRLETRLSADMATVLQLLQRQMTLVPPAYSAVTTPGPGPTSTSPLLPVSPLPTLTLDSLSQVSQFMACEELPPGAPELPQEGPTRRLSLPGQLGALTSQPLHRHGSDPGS

| Papp at 10 h, 100 μg/mL (in vitro) | Structure (SMILES) | Inhibition ratio of p70S6K phosphorylation at 20 μmol/L (%) [1] | Prediction of BBB penetration [2] | also measured |
| --- | --- | --- | --- | --- |
| 5.76 ± 0.57 ×10⁻⁶ cm/s | CC(=O)Oc1ccccc1C(=O)Nc1ncc(N2CCOCC2)s1 [Compound 12, 2-Acetyloxy-N-(5-morpholinothiazol-2-yl)benzamide] | 85.20% and 85.20±1.76% | CNS+ (Compounds with permeabilities Pe > 3.08 × 10^−6 cm/s could cross the BBB by passive diffusion (CNS+)) | Concentration at which viability of BV2 cells began to decrease (BV2 cells): 20 µM; Concentration at which viability of SH-SY5Y cells decreased (SH-SY5Y cells): 5 µM |
| 0.45 ± 0.03 ×10⁻⁶ cm/s | O=C(Nc1ncc(N2CCOCC2)s1)c1cccc(O)c1 [Compound 20, 3-Hydroxy-N-(5-morpholinothiazol-2-yl)benzamide] | 83.86±1.54% | CNS− (Compounds with Pe < 1.13 × 10^−6 cm/s show low BBB permeation (CNS−)) |  |
| 0.09 ± 0.01 ×10⁻⁶ cm/s | O=C(Nc1ncc(N2CCOCC2)s1)c1ccc(O)cc1 [Compound 21, 4-Hydroxy-N-(5-morpholinothiazol-2-yl)benzamide] | 79.20±1.87% | CNS− (Compounds with Pe < 1.13 × 10^−6 cm/s show low BBB permeation (CNS−)) |  |
| 6.02 ± 0.27 ×10⁻⁶ cm/s | CC(=O)Oc1cccc(C(=O)Nc2ncc(N3CCOCC3)s2)c1 [Compound 22, 3-Acetyloxy-N-(5-morpholinothiazol-2-yl)benzamide] | 88.95% and 88.95±0.78% | CNS+ (Compounds with permeabilities Pe > 3.08 × 10^−6 cm/s could cross the BBB by passive diffusion (CNS+)) | Cytotoxicity on BV2 cells (BV2 cells): no cytotoxicity; Cell viability of BV2 cells at high concentration (BV2 cells): decreased; Cytotoxicity on SH-SY5Y cells (SH-SY5Y cells): low cytotoxicity; Phosphorylation of AKT, mTOR, p70S6K (Western blot) [3]: dose-dependently suppressed the phosphorylation of AKT, mTOR, p70S6K; ULK1 phosphorylation at Ser 757 (Western blot) [3]: decreased ULK1 phosphorylation at Ser 757; Protein levels of Beclin 1, LC3 II and p62 (Western blot) (LC3 II, Beclin 1 and p62): upregulate the protein levels of Beclin 1 and LC3 II, and decrease the p62 protein level; Numbers of yellow and red mTagRFP-mWasabi-LC3 puncta (autophagy in BV2 cells): increased the numbers of both yellow and red puncta; Aβ1−40 and Aβ1−42 content in the cell (ELISA) (Aβ1−40 and Aβ1−42): dose-dependently decreased both Aβ1−40 and Aβ1−42 content; Tau phosphorylation at Ser199, 396 and Tyr231 (Western blot) [4]: dose-dependently inhibited tau phosphorylation; Escape latencies in MWM assay ([5]; 10 mg/kg orally): significantly reduced the escape latencies; Crossing times in MWM probe trial ([5]; 30 mg/kg orally): significantly increased the crossing times; Escape latencies in MWM assay ([5]; 30 mg/kg orally): significantly reduced the escape latencies; Nesting test [6]: obvious improvement in nesting test; Aβ40/42 level in cerebral cortex and hippocampus (ELISA) (Aβ40/42): significantly reduced Aβ40/42 level; p70S6K phosphorylation level in the cortex (Western blot) ([7]; 10 mg/kg): significantly reduce the p70S6K phosphorylation level; p70S6K phosphorylation level in the cortex (Western blot) ([7]; 30 mg/kg): significantly reduce the p70S6K phosphorylation level; IC50 (hERG potassium channels): > 40 µM |
| 4.92 ± 0.31 ×10⁻⁶ cm/s | CC(=O)Oc1ccc(C(=O)Nc2ncc(N3CCOCC3)s2)cc1 [Compound 23, 4-Acetyloxy-N-(5-morpholinothiazol-2-yl)benzamide] | 84.96±0.98% | CNS+ (Compounds with permeabilities Pe > 3.08 × 10^−6 cm/s could cross the BBB by passive diffusion (CNS+)) |  |
| 12.6 ± 1.22 ×10⁻⁶ cm/s | O=C(Nc1ncc(N2CCOCC2)s1)c1ccccc1 [Compound 24, N-(5-Morpholinothiazol-2-yl)benzamide] | 77.51±1.48% | CNS+ (Compounds with permeabilities Pe > 3.08 × 10^−6 cm/s could cross the BBB by passive diffusion (CNS+)) |  |
| 5.76 ± 0.55 ×10⁻⁶ cm/s | O=C(Nc1ncc(N2CCOCC2)s1)c1cccc2ccccc12 [Compound 30, N-(5-Morpholinothiazol-2-yl)-1-naphthamide] | 78.75±2.50% | CNS+ (Compounds with permeabilities Pe > 3.08 × 10^−6 cm/s could cross the BBB by passive diffusion (CNS+)) |  |
| 3.42 ± 0.07 ×10⁻⁶ cm/s | O=C(Nc1ncc(N2CCOCC2)s1)c1ccc2ccccc2c1 [Compound 31, N-(5-Morpholinothiazol-2-yl)-2-naphthamide] | 80.96±1.60% | CNS+ (Compounds with permeabilities Pe > 3.08 × 10^−6 cm/s could cross the BBB by passive diffusion (CNS+)) |  |
| 6.16 ± 0.5 ×10⁻⁶ cm/s | O=C(Nc1ncc(N2CCOCC2)s1)c1ccco1 [Compound 32, N-(5-Morpholinothiazol-2-yl)furan-2-carboxamide] | 81.09±4.27% | CNS+ (Compounds with permeabilities Pe > 3.08 × 10^−6 cm/s could cross the BBB by passive diffusion (CNS+)) |  |
| 10.4 ± 1.25 ×10⁻⁶ cm/s | O=C(Nc1ncc(N2CCOCC2)s1)c1cccs1 [Compound 33, N-(5-Morpholinothiazol-2-yl)thiophene-2-carboxamide] | 79.80±5.03% | CNS+ (Compounds with permeabilities Pe > 3.08 × 10^−6 cm/s could cross the BBB by passive diffusion (CNS+)) |  |
| 6.82 ± 0.5 ×10⁻⁶ cm/s | O=C(Nc1ncc(N2CCOCC2)s1)c1ccoc1 [Compound 34, N-(5-Morpholinothiazol-2-yl)furan-3-carboxamide] | 80.23±0.88% | CNS+ (Compounds with permeabilities Pe > 3.08 × 10^−6 cm/s could cross the BBB by passive diffusion (CNS+)) |  |
| 9.24 ± 0.47 ×10⁻⁶ cm/s | O=C(Nc1ncc(N2CCOCC2)s1)c1ccsc1 [Compound 35, N-(5-Morpholinothiazol-2-yl)thiophene-3-carboxamide] | 79.84±1.17% | CNS+ (Compounds with permeabilities Pe > 3.08 × 10^−6 cm/s could cross the BBB by passive diffusion (CNS+)) |  |
| 10.62 ± 0.1 ×10⁻⁶ cm/s | O=C(Nc1ncc(N2CCOCC2)s1)c1ccc(Cl)s1 [Compound 36, 5-Chloro-N-(5-morpholinothiazol-2-yl)thiophene-2-carboxamide] | 83.32±0.41% | CNS+ (Compounds with permeabilities Pe > 3.08 × 10^−6 cm/s could cross the BBB by passive diffusion (CNS+)) | Cytotoxicity on BV2 cells (BV2 cells): no cytotoxicity; Cell viability of BV2 cells at high concentration (BV2 cells): decreased; Cytotoxicity on SH-SY5Y cells (SH-SY5Y cells): low cytotoxicity; Phosphorylation of AKT, mTOR, p70S6K (Western blot) [3]: effectively inhibit the phosphorylation of AKT, mTOR, and p70S6K; ULK1 phosphorylation at Ser 757 (Western blot) [3]: no effect on the ULK1 phosphorylation; Protein levels of Beclin 1, LC3 II and p62 (Western blot) (LC3 II, Beclin 1 and p62): upregulate the protein levels of Beclin 1 and LC3 II, and decrease the p62 protein level; Numbers of yellow and red mTagRFP-mWasabi-LC3 puncta (autophagy in BV2 cells): increased the numbers of both yellow and red puncta |
| 9.89 ± 0.37 ×10⁻⁶ cm/s | Cc1ccc(C(=O)Nc2ncc(N3CCOCC3)s2)s1 [Compound 37, 5-Methyl-N-(5-morpholinothiazol-2-yl)thiophene-2-carboxamide] | 81.20±1.60% | CNS+ (Compounds with permeabilities Pe > 3.08 × 10^−6 cm/s could cross the BBB by passive diffusion (CNS+)) |  |
| 9.88 ± 0.75 ×10⁻⁶ cm/s | Cc1ccsc1C(=O)Nc1ncc(N2CCOCC2)s1 [Compound 38, 3-Methyl-N-(5-morpholinothiazol-2-yl)thiophene-2-carboxamide] | 80.32±0.71% | CNS+ (Compounds with permeabilities Pe > 3.08 × 10^−6 cm/s could cross the BBB by passive diffusion (CNS+)) |  |
| 10.5 ± 1.13 ×10⁻⁶ cm/s | O=C(CCc1ccccc1)Nc1ncc(N2CCOCC2)s1 [Compound 52, N-(5-Morpholinothiazol-2-yl)-3-phenylpropanamide] | 81.60±1.86% | CNS+ (Compounds with permeabilities Pe > 3.08 × 10^−6 cm/s could cross the BBB by passive diffusion (CNS+)) |  |
| 1.26 ± 0.21 ×10⁻⁶ cm/s | CC(=O)Oc1ccccc1C(=O)Nc1ncc([N+](=O)[O-])s1 [NTZ, nitazoxanide, reference compound] |  |  | Escape latencies in MWM assay ([5]; 30 mg/kg orally): significantly shortened the escape latencies; Nesting test [6]: obvious improvement in nesting test |

— PMC7161708 (Acta Pharmaceutica Sinica. B, 2019)
